Assay results reported in PubChem BioAssay (NCI).
“And” between values parts separate entries of the source, which are not always exact repeats. Equal entries are not always repeated.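 These data come from cells grown in 96-well plates and exposed to compound for 48 hours at five concentrations. Abbreviation: GI50, concentration required for 50% inhibition of growth. TGI: total growth inhibition.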 *1 amine or outer side, *2 acyl side, *3 side chain or, on linkers, in order; H or OH if unused. Where a SMILES comes first, the peptide text is derived from it. Bridges are numbered along the chain shown (N, C = ends). Roman numbers before positions name the chains, in order. [ ]: non-standard residue; d: D form. Actinocin(9to1) = Cc1c2oc3c(C)ccc(C(=O)[*:1])c3nc-2c(C(=O)[*:2])c(N)c1=O; NMeT = CN[CH](C(=O)O)[CH](C)O; Sar = CNCC(=O)O

Experiments:
Test in all cases: NCI-60 cell line screen, 48 h
NCI-H460 lung = system: NCI-H460 lung
MALME-3M melanoma = system: MALME-3M melanoma
DU-145 prostate = system: DU-145 prostate
HOP-62 NSCLC = system: HOP-62 NSCLC
HT29 colon = system: HT29 colon
COLO 205 colon = system: COLO 205 colon
CCRF-CEM leukemia = system: CCRF-CEM leukemia
M14 melanoma = system: M14 melanoma

SMILES | GI50 (NCI-H460 lung) | TGI (NCI-H460 lung) | GI50 (MALME-3M melanoma) | TGI (MALME-3M melanoma) | GI50 (DU-145 prostate) | TGI (DU-145 prostate) | GI50 (HOP-62 NSCLC) | TGI (HOP-62 NSCLC) | GI50 (HT29 colon) | TGI (HT29 colon) | GI50 (COLO 205 colon) | TGI (COLO 205 colon) | GI50 (CCRF-CEM leukemia) | TGI (CCRF-CEM leukemia) | GI50 (M14 melanoma) | TGI (M14 melanoma)
Cc1ccc2c(-c3ccnc(Nc4ccccc4)n3)c(-c3ccc(F)cc3)nn2n1 | 5.24 µM | 15.1 µM | 13.9 µM | > 25 µM | 7.59 µM | > 25 µM | 19.4 µM | > 25 µM | 2.34 µM | > 19.2 µM | 11.1 µM | > 25 µM | 5.81 µM | > 25 µM | 9.56 µM | > 25 µM
C#CC1(OC(C)=O)CCC2C3CC=C4C=C(OC(C)=O)CCC4(C)C3CCC21C (configuration not stated) |  | 61.8 µM |  | 33.9 µM |  | 97.4 µM |  | > 100 µM |  | 40 µM |  | 58.5 µM |  | 30.5 µM |  | 70.3 µM
Cc1c2oc3c(C)ccc(C(=O)NC4C(=O)NC(C(C)C)C(=O)N5CCCC5C(=O)N(C)CC(=O)N(C)C(C(C)O)C(=O)OC4C)c3nc-2c(C(=O)NC2C(=O)NC(C(C)C)C(=O)N3CCCC3C(=O)N(C)CC(=O)N(C)C(C(C)O)C(=O)OC2C)c(N)c1=O (configuration not stated) (I: TVP[Sar][NMeT] / II: TVP[Sar][NMeT]; ester I:1-I:C, II:1-II:C; linker I:N-II:N via Actinocin(9to1); configuration not given here) |  | 4.95 µM and > 1 µM | 0.0949 µM and 0.729 µM | 6.05 µM and > 1 µM | 5.98 µM and > 1 µM | > 100 µM |  | > 1 µM | 3.17 µM and 0.724 µM | > 100 µM | 2.22 µM and 0.801 µM | > 36.8 µM |  | 26.7 µM and > 1 µM | 7.14 µM and > 1 µM | > 56.9 µM
Cc1cc(O)cc2c1[C@]1(C)CCC3C(C)(C)CCC[C@]3(C)[C@H]1C2 (some centres not stated) | 20.6 µM | 37.1 µM | 23.2 µM | 39.4 µM | 19.1 µM | 35 µM | 20.6 µM | 35.5 µM | 18.5 µM | 35.5 µM | 18.8 µM | 34 µM | 29.6 µM | 92 µM | 21.6 µM | 37.6 µM
CNC/C(Cl)=N/S(=O)(=O)c1ccc(C)cc1 |  | 27.2 µM |  | 27.5 µM |  | 18.1 µM |  | 29.9 µM |  | 60.4 µM |  | 38.2 µM |  |  |  | 39.7 µM
C/C(=N\Nc1cc(C)c2ccccc2n1)c1ccccn1 | < 0.0387 µM | 1.17 µM | 0.155 µM | 1.49 µM | 0.107 µM | 12.4 µM | 0.07 µM | 1.37 µM | 0.0408 µM | 1.8 µM | < 0.0188 µM | 1.98 µM | < 0.0269 µM | 0.571 µM | 0.066 µM | 1.2 µM
CC1(C)CC2=C(Sc3ccccc3N2)C(=O)C1C(=O)C(=O)Nc1cccc([N+](=O)[O-])c1 (configuration not stated) |  | > 100 µM |  | > 100 µM |  | > 100 µM |  |  |  | > 100 µM |  | > 100 µM |  | > 100 µM |  | > 100 µM
CC(C)C[C@H](NC(=O)Cn1ccc(NCc2ccccc2)cc1=O)B(O)O | 6.19 µM | 37.6 µM | 2.22 µM | > 30 µM | 5.48 µM | > 100 µM | 4.86 µM | 29.5 µM | 0.814 µM | 8.41 µM | 2.48 µM | > 100 µM | 0.511 µM | > 100 µM | 1.35 µM | 7.08 µM
Cc1ccc(NC2=C(Cl)C(=O)N(Cc3ccc(Cl)cc3)C2=O)cc1O | 4.29 µM | 20.5 µM | 5.23 µM | 26.9 µM | 14.9 µM | 40.6 µM | 9.99 µM | 26.4 µM |  |  | 10.7 µM | 41 µM | 4.64 µM | 60 µM | 13.8 µM | 38 µM
CC1=C(C(=O)Nc2ccc(Cl)c(Cl)c2)C(c2cccc(Cl)c2)NC(=O)N1 (configuration not stated) | 8.5 µM | 20.1 µM |  |  | 7.58 µM | 14.3 µM | 10.4 µM | 20.5 µM |  |  | 9.42 µM | 21.2 µM |  |  | 7.79 µM | 16.1 µM
Cc1cc(=O)oc2c(C)c(O)ccc12 |  | > 100 µM |  | > 100 µM |  | > 100 µM |  | > 100 µM |  | > 100 µM |  | > 100 µM |  | > 100 µM |  | > 100 µM
COc1cc2ncn(-c3cc(O[C@@H](C)c4ccccc4Cl)c(C(N)=O)s3)c2cc1OC | 0.949 µM | > 25 µM | 13.7 µM | > 25 µM | 0.727 µM | > 25 µM | 0.744 µM | > 25 µM | 0.107 µM | > 25 µM | 0.444 µM | > 25 µM | 0.107 µM | > 10.5 µM | 1.76 µM | > 25 µM
C=C(CN1CCN(c2cccc(C(F)(F)F)n2)CC1)c1ccc(C(=O)Nc2ccccc2N)cc1 | 0.64 µM and 0.37 µM | > 100 µM | 1.06 µM and 0.338 µM | > 100 µM and 28.2 µM | 1.46 µM and 0.634 µM | > 100 µM | 2.21 µM and 0.877 µM | 21.4 µM and 7.51 µM | 0.565 µM and 0.341 µM |  | 3.34 µM and 0.907 µM |  | 0.278 µM | > 100 µM | 0.966 µM and 0.436 µM | > 100 µM
Cc1cccc(C)c1NC(=O)C(=O)CC(=O)/C=C/c1ccccc1 |  | > 100 µM |  | > 100 µM |  |  |  | > 100 µM |  | > 100 µM |  |  |  | > 100 µM |  | > 100 µM
C=CC1CCC[N+]1(CC(=O)OCC)Cc1ccccc1 (configuration not stated) |  | > 100 µM |  | > 100 µM |  | > 100 µM |  | > 100 µM |  | > 100 µM |  | > 100 µM |  | > 100 µM |  | > 100 µM
Cc1ccc(Cc2cnc(NC(=O)/C=C/c3cccc(C)c3)s2)cc1 | 0.064 µM | 11.8 µM | 0.19 µM | 51.9 µM | 0.395 µM | > 66.3 µM | 0.238 µM | 9.3 µM | 0.135 µM | 5.85 µM | 0.355 µM | > 100 µM | 0.0893 µM | > 53.6 µM | 0.0808 µM | 0.843 µM
CC(=O)N1C/C(=C/c2ccc(Cl)cc2)C(=O)/C(=C/c2ccc(Cl)cc2)C1 | 1.32 µM | 4.22 µM | 1.94 µM | 4.14 µM | 1.13 µM | 2.62 µM | 0.516 µM | 1.25 µM | 0.254 µM | 0.619 µM | 0.756 µM | 2.01 µM | 0.319 µM | 3.03 µM | 0.735 µM | 2.11 µM
